In patent publication US5151417A, “3-substituted vinyl cephalosporin derivatives” (Eisai Co., Ltd., priority 1989, dated 1992):
≈ marks a conversion by molar mass, not a printed value. Read-outs that look alike come from different tables or passages of the source.

Assays:
Format in all cases: cell-based
[1] = test system: Serratia marcescens ES-75; experiment: In vitro antibacterial activity, Serratia marcescens ES-75 (Tables 2-6)
Experimental: (§1) Typical compounds out of the compounds described in Examples were classified into some groups. On each compound group, in vitro antibacterial activities were tested by a method known per se in the art.

[2] = test system: Klebsiella pneumoniae EK-6; experiment: In vitro antibacterial activity, Klebsiella pneumoniae EK-6 (Tables 2-6)
Experimental: as §1

[3] = test system: Staphylococcus aureus 209-P; experiment: In vitro antibacterial activity, Staphylococcus aureus 209-P (Tables 2-6)
Experimental: as §1

[4] = test system: Morganella morganii EP-14; experiment: In vitro antibacterial activity, Morganella morganii EP-14 (Tables 2-6)
Experimental: as §1

[5] = test system: Escherichia coli NIHJ; experiment: In vitro antibacterial activity, Escherichia coli NIHJ (Tables 2-6)
Experimental: as §1

[6] = Klebsiella pneumoniae, EK6, Klebsiella pneumoniae EK-6, read-out: MIC
[7] = Staphylococcus aureus, 209P, Staphylococcus aureus 209-P, read-out: MIC
[8] = Escherichia coli, Escherichia coli NIHJ, read-out: MIC
[9] = Serratia marcescens, ES75, Serratia marcescens ES-75, read-out: MIC
[10] = Morganella morganii, EP14, Morganella morganii EP-14, read-out: MIC

Compound	MIC [2, 6] [µg/mL]	MIC [3, 7] [µg/mL]	MIC ([1]; Serratia marcescens, ES75) [µg/mL]	MIC ([2]; Klebsiella pneumoniae, EK6) [µg/mL]	MIC ([3]; Staphylococcus aureus, 209P) [µg/mL]	MIC ([4]; Morganella morganii, EP14) [µg/mL]	MIC ([5]; Escherichia coli) [µg/mL]	other results
CO/N=C(\C(=O)N[C@@H]1C(=O)N2C(C(=O)O)=C(/C=C/C3CCCO3)CS[C@H]12)c1csc(N)n1 (single isomer, unassigned) [48 A]	0.2 (≈ 0.417 µM)	0.4 (≈ 0.834 µM)						MIC ([1]; Serratia marcescens ES-75): 0.025 µg/mL (≈ 0.0521 µM); MIC ([4]; Morganella morganii EP-14): 0.025 µg/mL (≈ 0.0521 µM); MIC [5, 8]: 0.4 µg/mL (≈ 0.834 µM)
CO/N=C(\C(=O)N[C@@H]1C(=O)N2C(C(=O)O)=C(/C=C/C3CCCO3)CS[C@H]12)c1csc(N)n1 (single isomer, unassigned) [48 B]								MIC ([1]; Serratia marcescens ES-75): 0.1 µg/mL (≈ 0.209 µM); MIC ([2]; Klebsiella pneumoniae EK-6): 0.4 µg/mL (≈ 0.834 µM); MIC ([3]; Staphylococcus aureus 209-P): 0.8 µg/mL (≈ 1.67 µM); MIC ([4]; Morganella morganii EP-14): 0.2 µg/mL (≈ 0.417 µM); MIC ([5]; Escherichia coli NIHJ): 0.8 µg/mL (≈ 1.67 µM)
Nc1nc(/C(=N/O)C(=O)N[C@@H]2C(=O)N3C(C(=O)O)=C(/C=C/C4CCCO4)CS[C@H]23)cs1 (single isomer, unassigned) [50 A]	0.2 (≈ 0.43 µM)	0.1 (≈ 0.215 µM)						MIC ([1]; Serratia marcescens ES-75): 0.1 µg/mL (≈ 0.215 µM); MIC ([4]; Morganella morganii EP-14): 0.05 µg/mL (≈ 0.107 µM); MIC ([5]; Escherichia coli NIHJ): 0.2 µg/mL (≈ 0.43 µM)
Nc1nc(/C(=N/O)C(=O)N[C@@H]2C(=O)N3C(C(=O)O)=C(/C=C/C4CCCO4)CS[C@H]23)cs1 (single isomer, unassigned) [50 B]								MIC ([1]; Serratia marcescens ES-75): 0.4 µg/mL (≈ 0.859 µM); MIC ([2]; Klebsiella pneumoniae EK-6): 0.4 µg/mL (≈ 0.859 µM); MIC ([3]; Staphylococcus aureus 209-P): 0.1 µg/mL (≈ 0.215 µM); MIC ([4]; Morganella morganii EP-14): 0.2 µg/mL (≈ 0.43 µM); MIC ([5]; Escherichia coli NIHJ): 0.8 µg/mL (≈ 1.72 µM)
CO/N=C(\C(=O)N[C@@H]1C(=O)N2C(C(=O)O)=C(/C=C\c3cncnc3)CS[C@H]12)c1csc(N)n1 [Example 14]	0.2 (≈ 0.41 µM)	0.8 (≈ 1.64 µM)						MIC [1, 9]: 0.8 µg/mL (≈ 1.64 µM); MIC [4, 10]: 0.05 µg/mL (≈ 0.103 µM); MIC [5, 8]: 0.4 µg/mL (≈ 0.82 µM)
Nc1nc(/C(=N/O)C(=O)N[C@@H]2C(=O)N3C(C(=O)[O-])=C(/C=C\c4cncnc4)CS[C@H]23)cs1.[Na+] [Example 16, Sodium 7β-[(Z)-2-(2-aminothiazol-4-yl)-2-(hydroxyimino)acetamido]-3-[(Z)-2 (pyrimidin-5-yl)vinyl]-3-cephem-4-carboxylate]			> 100	0.05	0.2	0.012	0.1	
Cc1ncc(/C=C\C2=C(C(=O)O)N3C(=O)[C@@H](NC(=O)/C(=N\O)c4csc(N)n4)[C@H]3SC2)cn1 [Example 21]	0.1 (≈ 0.205 µM)	0.2 (≈ 0.41 µM)						MIC [1, 9]: 0.2 µg/mL (≈ 0.41 µM); MIC [4, 10]: 0.025 µg/mL (≈ 0.0513 µM); MIC [5, 8]: 0.2 µg/mL (≈ 0.41 µM)
Nc1nc(/C(=N/O)C(=O)N[C@@H]2C(=O)N3C(C(=O)[O-])=C(/C=C/c4cncnc4N)CS[C@H]23)cs1.[Na+] [Example 23, Sodium 7β[(Z)-2-(2-aminothiazol-4-yl)-2-(hydroxyimino)acetamido]-3-[(E)-2-(4-aminopyrimidin-5-yl)vinyl]-3-cephem-4-carboxylate]			> 100	0.025	0.2	0.012	0.4	
COc1ncncc1/C=C\C1=C(C(=O)[O-])N2C(=O)[C@@H](NC(=O)/C(=N\O)c3csc(N)n3)[C@H]2SC1.[Na+] [Example 25, Sodium 7β-[(Z)-2-(2-aminothiazol-4-yl)-2-(hydroxyimino)acetamido]-3-[(Z)-2-(4-methoxypyrimidin-5-yl)vinyl]-3-cephem-4-carboxylate]			0.2	0.4	0.2	0.1	0.8	
CO/N=C(\C(=O)N[C@@H]1C(=O)N2C(C(=O)[O-])=C(/C=C/c3cnccn3)CS[C@H]12)c1csc(N)n1.[Na+] [Example 27, Sodium 7β-[(Z)-2-(2-aminothiazol-4-yl)-2-(methoxyimino)acetamido]-3-[(E)-2-(pyrazin-2-yl)vinyl]-3-cephem-4-carboxylate]			0.05	0.1	0.8	0.05	0.2	
CO/N=C(\C(=O)N[C@@H]1C(=O)N2C(C(=O)O)=C(/C=C/c3c(Cl)ncnc3Cl)CS[C@H]12)c1csc(N)n1 [Example 29 (E)]								MIC [1, 9]: 6.25 µg/mL (≈ 11.2 µM); MIC [4, 10]: 0.4 µg/mL (≈ 0.719 µM)
CO/N=C(\C(=O)N[C@@H]1C(=O)N2C(C(=O)[O-])=C(/C=C\c3c(Cl)ncnc3Cl)CS[C@H]12)c1csc(N)n1.[Na+] [Example 29 (Z), Sodium 7β-[(Z)-2-(2-aminothiazol-4-yl)-2-(methoxyimino)acetamido]-3-[(Z)-2-(4,6-dichloropyrimidin-5-yl)vinyl]-3-cephem-4-carboxylate]			3.13	7.56	1.56	0.8	3.13	
CN(C)C(=O)OC/C=C\C1=C(C(=O)[O-])N2C(=O)C(NC(=O)/C(=N\O)c3csc(N)n3)[C@H]2SC1.[Na+] (stereo partly shown) [Example 30, Sodium 7-[(Z)-2-(2-aminothiazol-4-yl)-2-hydroxyiminoacetamido]-3-[(Z)-3-(N,N-dimethylcarbamoyloxy)-1-propenyl]-3-cephem-4-carboxylate]			0.05	0.2	0.2	0.05	0.2	
Nc1nc(/C(=N/O)C(=O)NC2C(=O)N3C(C(=O)O)=C(/C=C\COC(=O)N4CCOCC4)CSC23)cs1 (stereo not shown) [Example 32, Sodium 7-[(Z)-2-(2-aminothiazol-4-yl)-2-hydroxyiminoacetamido]-3-[(Z)-3-(1-morphorinylcarbonyloxy)-1-propenyl]-3-cephem-4-carboxylate]	0.1	0.2						MIC [5, 8]: 0.2 µg/mL
CNC(=O)OC/C=C\C1=C(C(=O)[O-])N2C(=O)C(NC(=O)/C(=N\O)c3csc(N)n3)[C@H]2SC1.[Na+] (stereo partly shown) [Example 33, Sodium 7-[(Z)-2-(2-aminothiazol-4-yl)-2-hydroxyiminoacetamido]-3-[(Z)-3-(N-methylcarbamoyloxy)-1-propenyl]-3-cephem-4-carboxylate]			0.025	0.012	0.1	≤ 0.006	0.025	
CNC(=O)OC/C=C\C1=C(C(=O)O)N2C(=O)C(NC(=O)/C(=N\OC)c3csc(N)n3)C2SC1 (stereo not shown) [Example 38]	0.05 (≈ 0.101 µM)	0.8 (≈ 1.61 µM)						MIC [1, 9]: 0.05 µg/mL (≈ 0.101 µM); MIC [4, 10]: 0.012 µg/mL (≈ 0.0242 µM); MIC [5, 8]: 0.2 µg/mL (≈ 0.403 µM)
CC(C)NC(=O)OC/C=C\C1=C(C(=O)[O-])N2C(=O)C(NC(=O)/C(=N\O)c3csc(N)n3)[C@H]2SC1.[Na+] (stereo partly shown) [Example 40, Sodium 7-[(Z)-2-(2-aminothiazol-4-yl)-2-hydroxyiminoacetamido]-3-[(Z)-3-(N-isopropylcarbamoyloxy)-1-propenyl]-3-cephem-4-carboxylate]			0.05	0.1	0.2	0.025	0.1	
CCNC(=O)OC/C=C\C1=C(C(=O)[O-])N2C(=O)C(NC(=O)/C(=N\O)c3csc(N)n3)[C@H]2SC1.[Na+] (stereo partly shown) [Example 42, Sodium 7-[(Z)-2-(2-aminothiazol-4-yl)-2-hydroxyiminoacetamido]-3-[(Z)-3-(N-ethylcarbamoyloxy)-1-propenyl]-3-cephem-4-carboxylate]			0.05	0.05	0.1	≤ 0.006	0.05	
Nc1nc(/C(=N/O)C(=O)NC2C(=O)N3C(C(=O)[O-])=C(/C=C\COC(=O)NCCCl)CS[C@H]23)cs1.[Na+] (stereo partly shown) [Example 44, Sodium 7-[(Z)-2-(2-aminothiazol-4-yl)-2-hydroxyiminoacetamido]-3-[(Z)-3-(N-(2-chloroethyl)carbamoyloxy)-1-propenyl]-3-cephem-4-carboxylate]			0.05	0.05	0.1	≤ 0.006	0.05	
C=CCNC(=O)OC/C=C\C1=C(C(=O)O)N2C(=O)C(NC(=O)/C(=N\O)c3csc(N)n3)C2SC1 (stereo not shown) [Example 46, Sodium 7-[(Z)-2-(2-aminothiazol-4-yl)-2-hydroxyiminoacetamido]-3-[(Z)-30(N-allylcarbamoyloxy)-1-propenyl] -3-cephem-4-carboxylate]	0.05	0.2						MIC [1, 9]: 0.05 µg/mL; MIC [4, 10]: 0.012 µg/mL; MIC [5, 8]: 0.1 µg/mL
CO/N=C(\C(=O)N[C@@H]1C(=O)N2C(C(=O)[O-])=C(/C=C\C3CCCO3)CS[C@H]12)c1csc(N)n1.[Na+] (stereo partly drawn) [Example 49, Sodium 7β-[(Z)-2-aminothiazol-4-yl-2-methoxyiminoacetamido]-3-[(Z)-2-(tetrahydrofuran-2-yl)vinyl]-3-cephem-4-carboxylate]			0.05	0.4	1.56	0.1	0.8	
